Reference: ChEMBL document CHEMBL1201862, “PubChem BioAssay data set” (2004)
Activity calls are given as the source filed them.

Tests used:
Caspase-3 = target: T1, Caspase-3 (Homo sapiens, UniProt P42574); format: functional;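 further: Dose-response selectivity test against caspase-3 for candidate inhibitors of sentrin-specific proteases (SENPs)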
T1 sequence (P42574 whole entry): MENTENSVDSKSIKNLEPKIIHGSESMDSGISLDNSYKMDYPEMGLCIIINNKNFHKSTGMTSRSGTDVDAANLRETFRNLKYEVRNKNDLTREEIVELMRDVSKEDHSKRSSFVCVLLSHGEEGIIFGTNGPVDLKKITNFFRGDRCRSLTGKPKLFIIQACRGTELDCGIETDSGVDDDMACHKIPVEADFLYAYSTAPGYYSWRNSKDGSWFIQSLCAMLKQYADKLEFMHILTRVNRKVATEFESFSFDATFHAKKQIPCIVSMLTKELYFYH

[1] = target: T2, Sentrin-specific protease 7 (Homo sapiens, UniProt Q9BQF6); format: functional;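 further: Luminescence-based dose-response confirmation of ultra-high-throughput screening hits, measuring inhibition of SENP7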
T2 sequence (Q9BQF6 whole entry): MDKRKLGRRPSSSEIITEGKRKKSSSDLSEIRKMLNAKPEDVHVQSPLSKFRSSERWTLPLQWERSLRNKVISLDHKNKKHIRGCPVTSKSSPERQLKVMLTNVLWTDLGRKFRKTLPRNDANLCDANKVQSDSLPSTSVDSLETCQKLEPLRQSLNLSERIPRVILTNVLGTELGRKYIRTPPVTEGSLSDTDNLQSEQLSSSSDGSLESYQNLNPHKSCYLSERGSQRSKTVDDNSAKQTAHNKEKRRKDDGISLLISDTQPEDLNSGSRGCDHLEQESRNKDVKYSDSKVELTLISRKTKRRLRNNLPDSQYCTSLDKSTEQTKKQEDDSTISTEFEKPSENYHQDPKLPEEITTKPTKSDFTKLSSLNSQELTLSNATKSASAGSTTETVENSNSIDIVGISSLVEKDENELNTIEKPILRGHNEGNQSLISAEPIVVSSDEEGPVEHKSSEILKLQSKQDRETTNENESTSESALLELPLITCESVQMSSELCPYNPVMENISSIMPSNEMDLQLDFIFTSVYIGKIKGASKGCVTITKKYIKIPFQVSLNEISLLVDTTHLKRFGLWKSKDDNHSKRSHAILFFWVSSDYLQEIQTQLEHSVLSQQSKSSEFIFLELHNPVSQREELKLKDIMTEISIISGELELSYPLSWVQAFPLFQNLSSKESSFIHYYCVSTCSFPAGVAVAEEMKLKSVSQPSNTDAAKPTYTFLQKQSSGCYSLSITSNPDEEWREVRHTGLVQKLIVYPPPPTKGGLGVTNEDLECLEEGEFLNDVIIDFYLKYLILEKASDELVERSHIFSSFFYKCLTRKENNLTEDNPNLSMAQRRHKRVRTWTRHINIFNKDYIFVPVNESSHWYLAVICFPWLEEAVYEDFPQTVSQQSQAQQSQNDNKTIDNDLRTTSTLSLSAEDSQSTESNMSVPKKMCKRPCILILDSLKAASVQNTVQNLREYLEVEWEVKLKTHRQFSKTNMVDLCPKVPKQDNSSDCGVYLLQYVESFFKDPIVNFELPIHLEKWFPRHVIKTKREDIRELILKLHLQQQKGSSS

[2] = target: T3, Sentrin-specific protease 6 (Homo sapiens, UniProt Q9GZR1); format: functional;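 further: Luminescence-based dose-response confirmatory assay of SENP6 inhibition, following up an ultra-high-throughput screen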
T3 sequence (Q9GZR1 whole entry): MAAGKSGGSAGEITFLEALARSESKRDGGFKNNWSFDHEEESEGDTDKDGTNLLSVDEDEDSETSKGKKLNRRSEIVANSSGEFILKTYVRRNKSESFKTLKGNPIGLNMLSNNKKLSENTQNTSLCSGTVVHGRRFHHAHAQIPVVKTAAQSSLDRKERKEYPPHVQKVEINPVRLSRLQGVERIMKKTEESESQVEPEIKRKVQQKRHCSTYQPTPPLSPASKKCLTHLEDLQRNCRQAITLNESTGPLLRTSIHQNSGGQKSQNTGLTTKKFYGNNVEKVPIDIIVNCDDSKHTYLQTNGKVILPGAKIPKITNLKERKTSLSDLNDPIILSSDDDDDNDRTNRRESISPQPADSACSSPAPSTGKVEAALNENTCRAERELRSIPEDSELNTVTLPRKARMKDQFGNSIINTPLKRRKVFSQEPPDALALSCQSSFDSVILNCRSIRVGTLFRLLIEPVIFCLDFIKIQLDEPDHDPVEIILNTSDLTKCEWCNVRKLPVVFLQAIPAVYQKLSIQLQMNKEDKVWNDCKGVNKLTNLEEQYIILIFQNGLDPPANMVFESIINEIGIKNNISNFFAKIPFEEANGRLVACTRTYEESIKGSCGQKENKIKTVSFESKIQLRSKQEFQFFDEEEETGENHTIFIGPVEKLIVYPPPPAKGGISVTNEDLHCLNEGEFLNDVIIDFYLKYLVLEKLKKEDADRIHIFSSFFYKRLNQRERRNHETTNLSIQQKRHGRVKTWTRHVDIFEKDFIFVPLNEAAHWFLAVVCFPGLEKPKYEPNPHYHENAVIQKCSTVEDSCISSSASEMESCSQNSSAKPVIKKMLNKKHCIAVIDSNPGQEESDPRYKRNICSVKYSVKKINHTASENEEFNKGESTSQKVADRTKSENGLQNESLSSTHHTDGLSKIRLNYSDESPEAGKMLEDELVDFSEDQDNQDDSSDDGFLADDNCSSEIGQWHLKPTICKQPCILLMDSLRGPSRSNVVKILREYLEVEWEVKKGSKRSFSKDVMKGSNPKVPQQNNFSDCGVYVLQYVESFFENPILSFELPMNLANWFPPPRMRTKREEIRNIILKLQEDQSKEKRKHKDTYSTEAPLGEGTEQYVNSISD

[3] = target: T4, Sentrin-specific protease 8 (Homo sapiens, UniProt Q96LD8); format: functional;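 further: luminescence read-out of SENP8 inhibition, dose-response confirmation following an ultra-high-throughput screen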
T4 sequence (Q96LD8 whole entry): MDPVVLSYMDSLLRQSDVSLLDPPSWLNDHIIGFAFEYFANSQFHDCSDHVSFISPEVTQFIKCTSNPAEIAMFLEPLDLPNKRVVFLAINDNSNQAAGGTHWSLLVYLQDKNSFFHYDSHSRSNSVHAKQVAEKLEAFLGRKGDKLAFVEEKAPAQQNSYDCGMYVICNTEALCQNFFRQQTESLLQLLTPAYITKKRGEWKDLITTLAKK

[4] = target: Voltage-dependent T-type calcium channel subunit alpha-1H (Homo sapiens, UniProt O95180); format: functional;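 further: channel activity triggered by adding a high calcium stimulation buffer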
Chain of Voltage-dependent T-type calcium channel subunit alpha-1H (O95180 whole entry): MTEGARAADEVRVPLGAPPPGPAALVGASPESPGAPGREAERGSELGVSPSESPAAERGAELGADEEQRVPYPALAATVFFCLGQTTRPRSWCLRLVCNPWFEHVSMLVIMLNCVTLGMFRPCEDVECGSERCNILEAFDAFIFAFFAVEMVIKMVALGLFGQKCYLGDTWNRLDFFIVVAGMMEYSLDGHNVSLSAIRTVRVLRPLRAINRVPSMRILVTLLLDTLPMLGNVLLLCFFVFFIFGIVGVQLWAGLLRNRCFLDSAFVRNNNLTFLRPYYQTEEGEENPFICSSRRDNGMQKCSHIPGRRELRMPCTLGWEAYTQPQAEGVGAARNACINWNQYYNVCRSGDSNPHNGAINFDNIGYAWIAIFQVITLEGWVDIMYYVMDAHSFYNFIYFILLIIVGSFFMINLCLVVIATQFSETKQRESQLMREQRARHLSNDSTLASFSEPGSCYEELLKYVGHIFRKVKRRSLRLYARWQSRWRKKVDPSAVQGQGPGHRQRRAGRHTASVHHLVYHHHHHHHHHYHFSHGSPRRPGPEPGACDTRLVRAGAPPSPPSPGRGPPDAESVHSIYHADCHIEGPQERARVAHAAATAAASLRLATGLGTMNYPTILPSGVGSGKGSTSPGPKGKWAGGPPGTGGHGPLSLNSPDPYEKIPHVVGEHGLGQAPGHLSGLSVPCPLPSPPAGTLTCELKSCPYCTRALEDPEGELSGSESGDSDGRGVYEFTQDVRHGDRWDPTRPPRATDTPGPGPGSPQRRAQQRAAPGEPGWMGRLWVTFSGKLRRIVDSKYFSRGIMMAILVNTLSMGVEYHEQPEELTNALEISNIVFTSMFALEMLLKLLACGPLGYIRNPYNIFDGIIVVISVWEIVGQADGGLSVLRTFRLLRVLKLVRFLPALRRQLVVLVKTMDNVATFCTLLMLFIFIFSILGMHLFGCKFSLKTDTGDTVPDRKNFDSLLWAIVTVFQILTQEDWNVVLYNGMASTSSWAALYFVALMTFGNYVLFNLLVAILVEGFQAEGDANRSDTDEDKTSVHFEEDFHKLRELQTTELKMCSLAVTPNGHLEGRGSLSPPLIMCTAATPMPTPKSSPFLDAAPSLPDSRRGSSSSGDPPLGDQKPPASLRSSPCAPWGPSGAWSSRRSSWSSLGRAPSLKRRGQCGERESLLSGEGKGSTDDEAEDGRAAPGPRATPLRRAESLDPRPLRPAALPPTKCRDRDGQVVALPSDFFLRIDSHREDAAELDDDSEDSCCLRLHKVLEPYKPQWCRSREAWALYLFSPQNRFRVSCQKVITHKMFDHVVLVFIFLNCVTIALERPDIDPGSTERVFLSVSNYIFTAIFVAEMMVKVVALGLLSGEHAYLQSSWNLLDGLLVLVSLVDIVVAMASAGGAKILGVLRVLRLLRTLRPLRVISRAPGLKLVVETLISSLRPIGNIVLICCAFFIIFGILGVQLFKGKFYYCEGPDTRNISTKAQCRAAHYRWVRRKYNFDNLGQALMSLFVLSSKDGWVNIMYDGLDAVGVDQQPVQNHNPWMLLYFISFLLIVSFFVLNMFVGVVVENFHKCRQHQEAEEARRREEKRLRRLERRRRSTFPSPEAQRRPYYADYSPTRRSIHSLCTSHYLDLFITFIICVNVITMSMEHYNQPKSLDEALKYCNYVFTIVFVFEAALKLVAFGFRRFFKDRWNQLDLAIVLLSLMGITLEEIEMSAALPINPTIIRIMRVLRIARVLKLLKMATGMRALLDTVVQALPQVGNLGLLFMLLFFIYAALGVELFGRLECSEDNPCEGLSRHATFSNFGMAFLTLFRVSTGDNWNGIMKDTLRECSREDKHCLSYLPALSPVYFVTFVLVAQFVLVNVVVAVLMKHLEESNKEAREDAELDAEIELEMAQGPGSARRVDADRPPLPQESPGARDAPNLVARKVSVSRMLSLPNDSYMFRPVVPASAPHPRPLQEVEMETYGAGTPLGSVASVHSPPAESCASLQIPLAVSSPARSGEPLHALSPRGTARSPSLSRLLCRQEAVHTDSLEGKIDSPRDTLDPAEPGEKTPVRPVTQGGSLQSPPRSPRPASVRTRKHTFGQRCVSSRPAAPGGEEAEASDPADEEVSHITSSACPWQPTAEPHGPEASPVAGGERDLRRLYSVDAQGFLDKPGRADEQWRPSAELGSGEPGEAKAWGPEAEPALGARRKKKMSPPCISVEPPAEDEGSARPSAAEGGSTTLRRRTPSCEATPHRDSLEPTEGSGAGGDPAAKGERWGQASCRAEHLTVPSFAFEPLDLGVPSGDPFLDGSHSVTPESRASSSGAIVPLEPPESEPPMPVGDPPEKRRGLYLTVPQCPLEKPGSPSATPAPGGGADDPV

[5] = target: T5, Adenosylmethionine-8-amino-7-oxononanoate aminotransferase (Mycobacterium tuberculosis, UniProt P9WQ81); assay: Mycobacterium tuberculosis BioA enzyme inhibitor Measured in Biochemical System Using Plate Reader - 2163-02_Inhibitor_Dose_CherryPick_Activity.; format: functional, Mycobacterium tuberculosis UT205
T5 sequence (P9WQ81 whole entry): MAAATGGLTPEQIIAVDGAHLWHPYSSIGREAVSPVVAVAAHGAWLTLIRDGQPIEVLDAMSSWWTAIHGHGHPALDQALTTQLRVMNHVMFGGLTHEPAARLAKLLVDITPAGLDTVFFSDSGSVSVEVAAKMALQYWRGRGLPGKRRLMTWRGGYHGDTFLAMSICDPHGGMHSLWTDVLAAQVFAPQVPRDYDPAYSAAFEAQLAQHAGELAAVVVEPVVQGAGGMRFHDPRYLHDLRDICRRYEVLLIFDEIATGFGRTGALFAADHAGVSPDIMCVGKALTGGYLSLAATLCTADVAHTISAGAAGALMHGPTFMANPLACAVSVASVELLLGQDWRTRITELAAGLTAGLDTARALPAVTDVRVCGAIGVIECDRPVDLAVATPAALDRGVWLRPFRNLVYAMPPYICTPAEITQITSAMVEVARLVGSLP

[6] = Luminescence Cell-Based Dose Response HTS to Identify Activators of Luciferase Translation or Activity in H4 […] Cells. [Related pubchem assays: 1829 (Project Summary), 1814 (Primary HTS)]; format: functional
BJ [7] = assay: cytotoxicity toward BJ-TERT fibroblasts, dose response, cell-based, RAS-independent, luminescence (AID 1933); format: functional; settings: Homo sapiens
H4 = assay: Luminescence Cell-Based Dose Response HTS to Identify Activators of 5'UTR Stem-Loop Driven Prion Protein mRNA Translation in H4 Neuroglioblastoma Cells. [Related pubchem assays: 1829 (Project Summary), 1814 (Primary HTS)]; format: functional; settings: Homo sapiens
BJ [8] = assay: cells; format: functional, cell-based; settings: Homo sapiens
BJ [9] = assay: cytotoxicity toward BJ-TERT-LT-ST fibroblasts, dose response, cell-based, RAS-independent, luminescence (AID 1935); format: functional; settings: Homo sapiens;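 further: BJ fibroblasts immortalized with TERT plus LT and ST oncogenes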
[10] = cytotoxicity toward DRD oncogenic fibroblasts, dose response, cell-based, non-viral oncogenic, luminescence (AID 1934); format: functional; settings: Homo sapiens
[11] = Luminescence Cell-Based Dose Confirmation HTS to Identify Activators of 5'UTR Stem-Loop Driven Alpha-Synuclein mRNA Translation in H4 Neuroglioblastoma Cells. [Related pubchem assays: 1829 (Project Summary), 1814 (Primary HTS)]; format: functional
[12] = target: Heat shock protein HSP 90-alpha (Homo sapiens, UniProt P07900); format: functional, organism-based

With C/C(=N\OC(=O)c1ccc(Cl)cc1)c1nccs1 as the compound, how does the IC50 (Caspase-3) read?
The IC50 was 15.1 µM (active).

And the IC50 [1]?
Its IC50 is 2.63 µM (active).

And the IC50 [2]?
The IC50 was 11.7 µM (active).

What about the IC50 [3] of the same compound?
The IC50 was 19.2 µM (active).

For O=C(CCSc1nc(-c2ccco2)cc(C(F)(F)F)n1)N1CCN(c2ccccn2)CC1, which EC50 [4] is on record?
The EC50 was 6.47 µM (active).

Which AC50 [5] does the source give for CC(=O)c1ccc(N2CCN(C(=O)c3ccc4c(c3)OCO4)CC2)cc1 here?
The AC50 was 0.155 µM (active).

With O=C(CSc1nc2c(c(=O)n1-c1ccc(Cl)cc1)SCC2)N1CCOCC1 as the compound, how does the AC50 [5] read?
The AC50 was 6.81 µM (active).

Which AC50 [5] does the source give for CC1Cc2nc(SCC(=O)N3CCOCC3)n(-c3ccccc3)c(=O)c2S1 (centres undefined) here?
Its AC50 is 5.31 µM (active).

With CCOC(=O)Nc1ccc2nc(N3CCCCCC3)sc2c1 as the compound, how does the EC50 [6] read?
The EC50 was 0.153 µM (active).

And the EC50 (BJ [7])?
The EC50 was 10.3 µM (inconclusive).

And the EC50 (H4)?
Its EC50 is > 120 µM (not active).

What about the EC50 (BJ [8]) of the same compound?
Its EC50 is 111 µM (active).

What about the EC50 (BJ [9]) of the same compound?
Its EC50 is 55.5 µM (inconclusive).

What about the EC50 [10] of the same compound?
Its EC50 is 4.7 µM (inconclusive).

What about the IC50 (Caspase-3) of the same compound?
Its IC50 is 31.1 µM (active).

What about the IC50 [1] of the same compound?
The IC50 was 10.5 µM (active).

What about the IC50 [2] of the same compound?
The IC50 was 33.1 µM (active).

And the IC50 [3]?
Its IC50 is 9.44 µM (active).

For O=C(Nc1cccc(Cl)c1)Nc1ccccc1C(=O)NCc1ccco1, which IC50 (Caspase-3) is on record?
The IC50 was 21.4 µM (active).

What about the IC50 [1] of the same compound?
Its IC50 is 4.05 µM (active).

What about the IC50 [2] of the same compound?
Its IC50 is 4.44 µM (active).

What about the IC50 [3] of the same compound?
The IC50 was > 100 µM (inactive).

With O=C(NC(=S)NC1CCCCCC1)c1cncc(Br)c1 as the compound, how does the EC50 [11] read?
The EC50 was 39.6 µM (active).

What about the EC50 [6] of the same compound?
The EC50 was 76.3 µM (active).

What about the EC50 (H4) of the same compound?
The EC50 was 7.48 µM (active).

Which results are given for O=C(/C=C/c1ccccc1)n1cnnc1SC/C=C/c1ccccc1?
IC50 (Caspase-3): 37.3 µM (active); IC50 [1]: 8.8 µM (active); IC50 [2]: 15.2 µM (active); IC50 [3]: 25.6 µM (active)

For Nn1c(SC/C=C/c2ccccc2)nnc1-c1cccnc1, which AC50 [5] is on record?
Its AC50 is 0.311 µM (active).

With O=C1CC(N2CCCCCC2)C(=O)N1c1ccc2c(c1)OCO2 (centres undefined) as the compound, how does the AC50 [12] read?
Its AC50 is 4.79 µM (active).

What does the source list for CC1CCC2(CC1)NC(=O)N(NC(=O)CCl)C2=O (centres undefined)?
EC50 [11]: 34.7 µM (active); EC50 [6]: > 120 µM (not active); EC50 (H4): > 120 µM (not active)
